Measurements: PMC5554727 (The Journal of steroid biochemistry and molecular biology, 2017)

Target: SULT1A1 (Homo sapiens, UniProt P50225)
Experiment: inhibition of sulfonation of […]C-p-nitrophenol by recombinant enzyme
Assay type: biochemical

Chain of SULT1A1 (P50225 whole entry): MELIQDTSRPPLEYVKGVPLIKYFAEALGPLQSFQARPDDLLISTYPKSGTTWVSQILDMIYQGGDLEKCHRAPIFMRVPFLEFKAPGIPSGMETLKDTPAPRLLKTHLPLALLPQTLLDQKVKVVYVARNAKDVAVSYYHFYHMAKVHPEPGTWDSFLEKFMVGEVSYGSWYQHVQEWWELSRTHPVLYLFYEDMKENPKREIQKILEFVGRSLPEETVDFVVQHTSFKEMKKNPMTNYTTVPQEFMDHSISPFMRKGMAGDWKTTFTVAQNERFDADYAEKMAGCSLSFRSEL

`Cc1ccc(-c2cc(C(F)(F)F)nn2-c2ccc(S(N)(=O)=O)cc2)cc1` [celecoxib] showed an IC50 of 2.1 µM.
